{"source": "patent US20190369111A1", "about": "“MOLECULAR KINETICS EVALUATION METHOD AND SCREENING METHOD” (Tokyo University of Science Foundation, priority 2016, published 2019)", "biological_target": "endogenous wild-type p53 protein (Homo sapiens, UniProt P04637)", "sequence (P04637 whole entry)": "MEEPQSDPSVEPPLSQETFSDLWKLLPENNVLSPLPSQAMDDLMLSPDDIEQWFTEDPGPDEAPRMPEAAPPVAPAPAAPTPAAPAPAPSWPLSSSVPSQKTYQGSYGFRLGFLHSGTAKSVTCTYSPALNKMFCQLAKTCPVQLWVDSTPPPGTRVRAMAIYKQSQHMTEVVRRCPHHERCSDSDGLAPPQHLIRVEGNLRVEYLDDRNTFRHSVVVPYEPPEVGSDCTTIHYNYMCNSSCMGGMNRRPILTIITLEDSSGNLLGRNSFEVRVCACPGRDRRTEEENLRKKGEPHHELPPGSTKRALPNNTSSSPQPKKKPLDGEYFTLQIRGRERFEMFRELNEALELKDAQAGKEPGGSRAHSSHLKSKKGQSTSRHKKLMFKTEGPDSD", "assay": "Degradation of endogenous wild-type p53 protein in HCT116 cells, Western blot analysis", "format": "cell-based", "set-up": "an endogenous wild-type p53 protein and MDM2 protein in HCT116 cells (human large intestine cancer cells); endogenous in cells; host or cells: HCT116 cells", "details": "48 hours after addition", "method": "HCT116 cells were seeded in a 24-well plate at a cell density of 8×10^4 cells/well, and then cultured under conditions of 37° C. and 5 vol % CO2 for 16 hours.\nAfter 16 hours from cell seeding, TIBC-CANDDY_MLN or TIBC was added to HCT116 cells as follows. As a medium, a serum-free medium (37° C.) in which 1 mass % L-glutamine solution (Sigma-Aldrich) was added to D-MEM (high D-glucose, phenol red, sodium pyruvate (Wako Pure Chemical Industries, Ltd.)) was used. It is noted that the L-glutamine solution was added immediately before use. A DMSO solution containing TIBC-CANDDY_MLN or TIBC was mixed with the medium so that the concentration of DMSO was 1 vol %, and added to each well at 500 μL/well, and cultured under conditions of 37° C. and 5 vol % CO2. As a control, DMSO was used.\nThe medium was removed 48 hours after addition of TIBC-CANDDY_MLN or TIBC, and then PBS was added to wash the cells. […]\nAfter electrophoresis, proteins were transferred to a PVDF membrane (Immobion™-P, Millipore) under conditions of 100 V and 2 hours using a tank-type blotting device and a transfer buffer (25 mM Tris-HCl, 195 mM glycine, 0.01% SDS, 15% methanol). […] Subsequently, the membrane was treated with a chemiluminescence reagent Immobilon™ Western (Millipore), and then chemiluminescence was detected using a lumino image analyzer LAS-3000 (FUJIFILM Corporation)."}
{"smiles": "CC(C)C[C@H](NC(=O)CNC(=O)c1cc(Cl)ccc1Cl)C(=O)NCCCCCCC(=O)Nc1ccc(C(=O)/C=C/c2ccc(I)cc2)cc1", "note": "[TIBC-CANDDY_MLN]", "values": [{"measurement": "amount of endogenous wild-type p53 protein", "result": "reduced"}]}
